The record followed here is patent US11866414B2, “Substituted heterocyclic compounds” (BRISTOL-MYERS SQUIBB COMPANY, priority 2021, dated 2024).

The nature of series [1]: Brain penetration in vivo assay (brain and plasma exposure). Particulars: C57BL6, brain / plasma, 10 mg/kg, Table 4, comparison of CNS penetration with prior art, mouse, 10 mpk, po, read-out: Ratio of exposure in brain to plasma (mouse) (1 h, 10 mpk, po). The procedure: Brain Penetration In Vivo Assay
A pharmacokinetic study was performed using C57BL6 wild-type mice (n=3 per experiment) to determine brain and plasma exposure of compounds of the invention. The compound was administered orally in a solution of 5% ETHANOL: 90% PEG 300; 5% TPGS at 5 mL/kg for a final concentration of 10 mg/kg. Nice were euthanized 1 hour post-dose and plasma and brain were collected and frozen for analysis. Brain tissues were homogenized in a 1:1 volume of blank C57BL6 mouse plasma. Concentrations of the compound in plasma and brain homogenate were determined by LC-MS analysis.

In series [2] the test system is IFNα-induced STAT phosphorylation (pSTAT5). The experiment in a line: IFNα-induced STAT phosphorylation in human whole blood. In kind it is cell-based. Particulars: 1 h compound, 1000 U/mL IFNα A/D 15 min, CD3 positive population, read-out: Human Whole blood IFNa pSTAT5 IC50. The procedure:
IFNα-Induced STAT Phosphorylation in Human Whole Blood
After an hour long incubation with compound, human whole blood (drawn with ACD-A as anticoagulant) was stimulated with 1000 U/mL recombinant human IFNα A/D (R&D Systems 11200-2) for 15 min. The stimulation was stopped by adding Fix/Lyse buffer (BD 558049). Cells were stained with a CD3 FITC antibody (BD 555916), washed, and permeabilized on ice using Perm III buffer (BD 558050). Cells were then stained with an Alexa-Fluor 647 pSTAT5 (pY694) antibody (BD 612599) for 60 min prior to analysis on the iQue Plus. The amount of pSTAT5 expression was quantitated by median fluorescence intensity after gating on the CD3 positive population.

Another series can be described thus: in vitro. Particulars: human, Caco-2, pH 7.4.

The structures appear in SMILES notation. Bounds are passed on as bounds.

In the case of `[2H]C([2H])([2H])NC(=O)c1nnc(NC(=O)C2CC2)cc1Nc1cccc(-c2ncn(C3CC3)n2)c1OC` [B, reference compound], in series [1], the Kp at 1 h is 0.02.

As usually defined, the IC50 is the concentration at which inhibition is half-maximal. Usually Papp A→B stands for the apparent permeability from the apical to the basolateral side of a cell layer. A low value points to poor permeation. Usually efflux ratio stands for a quotient of directional permeabilities that is used to spot active efflux. As for `[2H]C([2H])([2H])NC(=O)c1nnc(NC(=O)[C@H]2C[C@@H]2C)cc1Nc1nccc(-c2cnn(C)n2)c1OC` [Example 42, 4-((3-methoxy-4-(2-methyl-2H-1,2,3-triazol-4-yl)pyridin-2-yl)amino)-N-(methyl-d3)-6-((1S,2S)-2-methylcyclopropane-1-carboxamido)pyridazine-3-carboxamide], the IC50 in series [2] was 0.05 µM. In “in vitro”, the Papp A→B at 2 h, 3 μM came out at 28.7 ×10⁻⁶ cm/s and the efflux ratio at 2 h, 3 μM was 0.4.

Turning to `[2H]C([2H])([2H])NC(=O)c1nnc(NC(=O)[C@@H]2C[C@H]2CC)cc1Nc1nccc(-c2cnn(C)n2)c1OC` [Example 43, 6-((1R,2R)-2-ethylcyclopropane-1-carboxamido)-4-((3-methoxy-4-(2-methyl-2H-1,2,3-triazol-4-yl)pyridin-2-yl)amino)-N-(methyl-d3)pyridazine-3-carboxamide], the IC50 in series [2] came to 0.28 µM. In addition, in the series “in vitro”, the Papp A→B at 2 h, 3 μM came to 13.4 ×10⁻⁶ cm/s and the efflux ratio at 2 h, 3 μM stood at 0.6.

Take `[2H]C([2H])([2H])NC(=O)c1nnc(NC(=O)[C@@H]2C[C@@H]2F)cc1Nc1nccc(-c2cnn(C3CC3)n2)c1OC` [Example 44, 4-((4-(2-cyclopropyl-2H-1,2,3-triazol-4-yl)-3-methoxypyridin-2-yl)amino)-6-((1S,2S)-2-fluorocyclopropane-1-carboxamido)-N-(methyl-d3)pyridazine-3-carboxamide]: in series [2], the IC50 was determined as 0.04 µM. Further, in “in vitro”, the Papp A→B at 2 h, 3 μM was 24.6 ×10⁻⁶ cm/s and the efflux ratio at 2 h, 3 μM turned out to be 0.5.

As to `[2H]C([2H])([2H])NC(=O)c1nnc(NC(=O)CCCF)cc1Nc1nccc(-c2cnn(C)n2)c1OC` [Example 45, 6-(4-fluorobutanamido)-4-{[3-methoxy-4-(2-methyl-2H-1,2,3-triazol-4-yl)pyridin-2-yl]amino}-N—(^2H3)methylpyridazine-3-carboxamide], the IC50 in series [2] is 0.06 µM. In addition, in the series “in vitro”, the Papp A→B at 2 h, 3 μM is 5.8 ×10⁻⁶ cm/s and the efflux ratio at 2 h, 3 μM worked out at 0.5.

`[2H]C([2H])([2H])NC(=O)c1nnc(NC(=O)C2CC2)cc1Nc1nc(C)cc(-c2cnn(C)n2)c1OC` [Example 46, 6-(cyclopropanecarboxamido)-4-((3-methoxy-6-methyl-4-(2-methyl-2H-1,2,3-triazol-4-yl)pyridin-2-yl)amino)-N-(methyl-d3)pyridazine-3-carboxamide]: the IC50 in series [2] was determined as 0.01 µM. Moreover, in the series “in vitro”, the Papp A→B at 2 h, 3 μM was 38.1 ×10⁻⁶ cm/s and the efflux ratio at 2 h, 3 μM is 0.4.

On to `[2H]C([2H])([2H])NC(=O)c1nnc(NC(=O)[C@@H]2C[C@H]2C)cc1Nc1nc(C)cc(-c2cnn(C)n2)c1OC` [Example 47, 4-((3-methoxy-6-methyl-4-(2-methyl-2H-1,2,3-triazol-4-yl)pyridin-2-yl)amino)-N-(methyl-d3)-6-((1R,2R)-2-methylcyclopropane-1-carboxamido)pyridazine-3-carboxamide], for which the concentration for half-maximal inhibition (IC50) in series [2] is 0.11 µM. In addition, in the series “in vitro”, the Papp A→B at 2 h, 3 μM stood at 34 ×10⁻⁶ cm/s and the efflux ratio at 2 h, 3 μM came out at 0.3.

Turning to `[2H]C([2H])([2H])NC(=O)c1nnc(NC(=O)[C@H]2C[C@@H]2C)cc1Nc1nc(C)cc(-c2cnn(C)n2)c1OC` [Example 48, 4-((3-methoxy-6-methyl-4-(2-methyl-2H-1,2,3-triazol-4-yl)pyridin-2-yl)amino)-N-(methyl-d3)-6-((1S,2S)-2-methylcyclopropane-1-carboxamido)pyridazine-3-carboxamide], the IC50 in series [2] was found to be 6.8 µM. Moreover, in the series “in vitro”, the Papp A→B at 2 h, 3 μM turned out to be 30.1 ×10⁻⁶ cm/s and the efflux ratio at 2 h, 3 μM amounted to 0.3.

As for `[2H]C([2H])([2H])NC(=O)c1nnc(N2CCN(C(C)C)C2=O)cc1Nc1cccc(-c2cnn(C)n2)c1OC` [Example 50, 6-(3-isopropyl-2-oxoimidazolidin-1-yl)-4-((2-methoxy-3-(2-methyl-2H-1,2,3-triazol-4-yl)phenyl)amino)-N-(methyl-d3)pyridazine-3-carboxamide], the IC50 in series [2] came to 0.17 µM. Moreover, in “in vitro”, the Papp A→B at 2 h, 3 μM is 26.5 ×10⁻⁶ cm/s and the efflux ratio at 2 h, 3 μM was determined as 0.4.

With `[2H]C([2H])([2H])NC(=O)c1nnc(NC(=O)C2CC2)cc1Nc1nccc(-c2cnn(C([2H])([2H])[2H])n2)c1OC` [Example 57, 6-(cyclopropane-carboxamido)-4-((3-methoxy-4-(2-(methyl-d3)-2H-1,2,3-triazol-4-yl)pyridin-2-yl)amino)-N-(methyl-d3)pyridazine-3-carboxamide], the IC50 in series [2] turned out to be 0.01 µM. In addition, in “in vitro”, the Papp A→B at 2 h, 3 μM is 81.6 ×10⁻⁶ cm/s and the efflux ratio at 2 h, 3 μM turned out to be 0.4.

In the case of `[2H]C([2H])([2H])NC(=O)c1nnc(NC(=O)N(C)C)cc1Nc1nccc(-c2cnn(C3CC3)n2)c1OC` [Example 61, 4-((4-(2-cyclopropyl-2H-1,2,3-triazol-4-yl)-3-methoxypyridin-2-yl)amino)-6-(3,3-dimethylureido)-N-(methyl-d3)pyridazine-3-carboxamide], the IC50 in series [2] came out at 0.48 µM. For the same molecule, in “in vitro”, the Papp A→B at 2 h, 3 μM turned out to be 38.3 ×10⁻⁶ cm/s and the efflux ratio at 2 h, 3 μM was 0.4.

On to `[2H]C([2H])([2H])NC(=O)c1nnc(Nc2ccccn2)cc1Nc1nccc(-c2cnn(C)n2)c1OC` [Example 63, 4-((3-methoxy-4-(2-methyl-2H-1,2,3-triazol-4-yl)pyridin-2-yl)amino)-N-(methyl-d3)-6-(pyridin-2-ylamino)pyridazine-3-carboxamide], for which the 50% inhibitory concentration (IC50) in series [2] amounted to 0.02 µM. In addition, in the series “in vitro”, the Papp A→B at 2 h, 3 μM is 3.9 ×10⁻⁶ cm/s and the efflux ratio at 2 h, 3 μM was below 0.4.

Take `[2H]C([2H])([2H])NC(=O)c1nnc(Nc2cc(C)nc(C)n2)cc1Nc1nccc(-c2cnn(C)n2)c1OC` [Example 64, 6-[(2,6-dimethylpyrimidin-4-yl)amino]-4-{[3-methoxy-4-(2-methyl-2H-1,2,3-triazol-4-yl)pyridin-2-yl]amino}-N—(^2H3)methylpyridazine-3-carboxamide]: in series [2], the IC50 was 0.25 µM. Further, in “in vitro”, the Papp A→B at 2 h, 3 μM amounted to 1.7 ×10⁻⁶ cm/s and the efflux ratio at 2 h, 3 μM was below 0.9.

In the case of `[2H]C([2H])([2H])NC(=O)c1nnc(Nc2ccc(C(C)(C)O)cn2)cc1Nc1nccc(-c2cnn(C)n2)c1OC` [Example 65, 6-{[5-(2-hydroxypropan-2-yl)pyridin-2-yl]amino}-4-{[3-methoxy-4-(2-methyl-2H-1,2,3-triazol-4-yl)pyridin-2-yl]amino}-N—(^2H3)methylpyridazine-3-carboxamide], the concentration for half-maximal inhibition (IC50) in series [2] was 0.004 µM. In the series “in vitro”, the Papp A→B at 2 h, 3 μM was found to be 11.7 ×10⁻⁶ cm/s and the efflux ratio at 2 h, 3 μM came to 1.6.

As to `[2H]C([2H])([2H])NC(=O)c1nnc(Nc2ccc(N3CCOCC3)cn2)cc1Nc1nccc(-c2cnn(C)n2)c1OC` [Example 66, 4-{[3-methoxy-4-(2-methyl-2H-1,2,3-triazol-4-yl)pyridin-2-yl]amino}-N—(^2H3)methyl-6-{[5-(morpholin-4-yl)pyridin-2-yl]amino}pyridazine-3-carboxamide], the IC50 in series [2] amounted to 0.0002 µM. For the same molecule, in the series “in vitro”, the Papp A→B at 2 h, 3 μM was 22.2 ×10⁻⁶ cm/s and the efflux ratio at 2 h, 3 μM amounted to 0.3.

With `[2H]C([2H])([2H])NC(=O)c1nnc(Nc2cc(C(C)(C)O)ccn2)cc1Nc1nccc(-c2cnn(C)n2)c1OC` [Example 67, 6-{[4-(2-hydroxypropan-2-yl)pyridin-2-yl]amino}-4-{[3-methoxy-4-(2-methyl-2H-1,2,3-triazol-4-yl)pyridin-2-yl]amino}-N—(^2H3)methylpyridazine-3-carboxamide], in series [2], the IC50 came to 0.086 µM. For the same molecule, in the series “in vitro”, the Papp A→B at 2 h, 3 μM was found to be 28.6 ×10⁻⁶ cm/s and the efflux ratio at 2 h, 3 μM was determined as 0.9.

Regarding `[2H]C([2H])([2H])NC(=O)c1nnc(Nc2cc(C)n(C)n2)cc1Nc1nccc(-c2cnn(C)n2)c1OC` [Example 68, 6-[(1,5-dimethyl-1H-pyrazol-3-yl)amino]-4-{[3-methoxy-4-(2-methyl-2H-1,2,3-triazol-4-yl)pyridin-2-yl]amino}-N—(^2H3)methylpyridazine-3-carboxamide], in series [2], the IC50 was 0.29 µM. Also, in “in vitro”, the apparent permeability from apical to basolateral (Papp A→B) at 2 h, 3 μM was found to be 59.4 ×10⁻⁶ cm/s and the efflux ratio at 2 h, 3 μM stood at 0.4.

With `[2H]C([2H])([2H])NC(=O)c1nnc(NC(=O)[C@@H]2C[C@@H]2F)cc1Nc1nc(C)cc(-c2cnn(C)n2)c1OC` [Example 69, 6-((1S,2S)-2-fluorocyclopropane-1-carboxamido)-4-((3-methoxy-6-methyl-4-(2-methyl-2H-1,2,3-triazol-4-yl)pyridin-2-yl)amino)-N-(methyl-d3)pyridazine-3-carboxamide], the IC50 in series [2] was 0.003 µM. Also, in “in vitro”, the Papp A→B at 2 h, 3 μM came out at 36.2 ×10⁻⁶ cm/s and the efflux ratio at 2 h, 3 μM was 0.6.
